# Measurements taken from patent US8889704B2 (Array BioPharma Inc., priority 2011, dated 2014).
# Counter-ions that a name gives are not always drawn.
# Assays:
# Format in all cases: biochemical
# [1] = target: PIM-1 (Homo sapiens, UniProt P11309); experiment: Enzyme PIM-1 Assay ([33P]ATP incorporation into PIM2tide, filter plate); conditions: averaged IC50; 35 μM ATP, 7.5 μM PIM2tide, 0.25 nM PIM-1, 60 min at 22° C.
# In short: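 Radiometric assay: 0.25 nM PIM-1 phosphorylates 7.5 μM PIM2tide with 35 μM [γ-33P]ATP in 20 mM MOPS pH 7.4, 10 mM MgCl2, 1 mM DTT, 0.005% Tween-20, 60 min at 22 °C. Product captured on P81 filters, scintillation counted; 10-point 3-fold curve from 10 μM top, 2% DMSO, IC50 by 4-parameter logistic fit of POC.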
# [2] = target: recombinant rat PIM-3 (Rattus norvegicus, UniProt O70444); experiment: PIM-3 Assay (as Example A); conditions: averaged IC50; 30 μM ATP, 3.75 μM PIM2tide, 0.5 nM PIM-3
# In short: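 Recombinant rat PIM-3 (0.5 nM) with 3.75 μM PIM2tide and 30 μM [γ-33P]ATP in MOPS pH 7.4 buffer, 60 min at 22 °C; labelled peptide captured on phosphocellulose filters and counted by scintillation. 10-point curve (top dose 10 μM, 2% DMSO); IC50 from 4-parameter fit of percent of control.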
# [3] = target: T1, GST-tagged recombinant full-length human Pim-2 (Homo sapiens, UniProt Q9P1W9); experiment: PIM-2 Assay (as Example A); conditions: averaged IC50; 4 μM ATP, 1.0 μM PIM2tide, 1.5 nM Pim-2
# T1 construct: GST-tagged recombinant full-length human Pim-2; GST
# T1 sequence (Q9P1W9 whole entry): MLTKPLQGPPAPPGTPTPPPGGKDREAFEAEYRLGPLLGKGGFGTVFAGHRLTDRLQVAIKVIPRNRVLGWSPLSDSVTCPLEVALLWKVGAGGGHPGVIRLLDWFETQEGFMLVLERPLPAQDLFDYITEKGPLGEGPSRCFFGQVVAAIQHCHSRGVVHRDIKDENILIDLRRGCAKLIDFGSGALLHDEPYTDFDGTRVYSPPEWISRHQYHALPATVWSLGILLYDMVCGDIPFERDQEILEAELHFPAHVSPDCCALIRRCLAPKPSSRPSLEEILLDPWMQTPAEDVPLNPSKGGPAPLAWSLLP
# In short: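 Radiometric filter-binding assay: GST-tagged full-length human Pim-2 (1.5 nM) phosphorylates 1.0 μM PIM2tide with 4 μM [γ-33P]ATP for 60 min at 22 °C in pH 7.4 MOPS buffer, 2% DMSO. 10-point 3-fold dilutions from 10 μM top dose; IC50 from 4-parameter fit of percent of control.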
# Chain of PIM-1 (P11309 whole entry, species assumed): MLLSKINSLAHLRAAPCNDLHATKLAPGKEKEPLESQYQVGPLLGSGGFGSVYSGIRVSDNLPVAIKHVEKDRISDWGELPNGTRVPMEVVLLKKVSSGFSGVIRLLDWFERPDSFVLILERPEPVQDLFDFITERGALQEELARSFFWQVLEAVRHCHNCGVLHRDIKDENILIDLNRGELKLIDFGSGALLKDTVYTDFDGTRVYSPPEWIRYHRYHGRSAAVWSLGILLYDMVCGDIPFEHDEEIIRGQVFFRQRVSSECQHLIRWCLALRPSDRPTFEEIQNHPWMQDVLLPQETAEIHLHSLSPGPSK
Structure (SMILES),IC50 [1],IC50 [2],IC50 [3]
"CC(C)NC(=O)c1ccc2ccc(-c3nnc4ccc([C@H](N5CC[C@@H](N)C5)C(F)(F)F)cn34)nc2c1 [Example 52, 2-(6-((S)-1-((R)-3-aminopyrrolidin-1-yl)-2,2,2-trifluoroethyl)-[1,2,4]triazolo[4,3-a]pyridin-3-yl)-N-isopropylquinoline-7-carboxamide]",1.39 nM,2 nM,> 100 nM
"CO[C@@H](C)COc1ccc2ccc(-c3nnc4ccc([C@@H](N5CC[C@H](N)C5)C(F)(F)F)cn34)nc2c1 [Example 287, (S)-1-((R)-2,2,2-trifluoro-1-(3-(7-((S)-2-methoxypropoxy)quinolin-2-yl)-[1,2,4]triazolo[4,3-a]pyridin-6-yl)ethyl)pyrrolidin-3-amine dihydrochloride]",0.32 nM,0.7 nM,178 nM
"CCOc1cc2nc(-c3nnc4ccc([C@@H](N5CCC(N)(CC)C5)C(F)(F)F)cn34)ccc2cc1F (single isomer, unassigned; diastereomer 2) [Example 253, dihydrochloride]",0.78 nM,2.2 nM,776 nM
"N[C@@H]1[C@H]2CN(C(c3ccc4nnc(-c5ccc6cccc(OCC7CC7)c6n5)n4c3)C(F)(F)F)C[C@@H]12 (stereo partly drawn) [Example 26, (1R,5S,6S)-3-(1-(3-(8-(cyclopropylmethoxy)quinolin-2-yl)-[1,2,4]triazolo[4,3-a]pyridin-6-yl)-2,2,2-trifluoroethyl)-3-azabicyclo[3.1.0]hexanesan-6-amine dihydrochloride]",2.12 nM,> 100 nM,796 nM
"N[C@H]1CCN([C@H](c2ccc3nnc(-c4ccc5ccc(C6CC6)cc5n4)n3c2)C(F)(F)F)C1 (single isomer, unassigned) [Example 13]",0.31 nM,1 nM,121 nM
"COCCCOc1cc(F)cc2ccc(-c3nnc4ccc([C@@H](N5CC[C@H](N)C5)C(F)(F)F)cn34)nc12 [Example 233, (S)-1-((R)-2,2,2-trifluoro-1-(3-(6-fluoro-8-(3-methoxypropoxy)quinolin-2-yl)-[1,2,4]triazolo[4,3-a]pyridin-6-yl)ethyl)pyrrolidin-3-amine dihydrochloride]",0.28 nM,1.1 nM,260 nM
"CC(C)Oc1cccc2ccc(-c3nnc4ccc([C@H](N5CC[C@@](C)(N)C5)C(F)(F)F)cn34)nc12 [Example 90, (R)-3-methyl-1-((S)-2,2,2-trifluoro-1-(3-(8-isopropoxyquinolin-2-yl)-[1,2,4]triazolo[4,3-a]pyridin-6-yl)ethyl)pyrrolidin-3-amine dihydrochloride]",2.26 nM,23 nM,> 100 nM
"CC(C)NC(=O)c1ccc2ccc(-c3nnc4ccc([C@H](N5CC[C@H](N)C5)C(F)(F)F)cn34)nc2c1 [Example 48, 2-(6-((S)-1-((S)-3-aminopyrrolidin-1-yl)-2,2,2-trifluoroethyl)-[1,2,4]triazolo[4,3-a]pyridin-3-yl)-N-isopropylquinoline-7-carboxamide dihydrochloride]",1.41 nM,1.9 nM,> 100 nM
"CC1(O)CCN([C@H](c2ccc3nnc(-c4ccc5cccc(C(C)(C)C)c5n4)n3c2)C(F)(F)F)C1 (single isomer, unassigned; diastereomer 1) [Example 195, hydrochloride]",21.3 nM,53 nM,> 1000 nM
"CC(C)[C@H](N)C(=O)OCCOc1cc2nc(-c3nnc4ccc([C@@H](N5CC[C@H](N)C5)C(F)(F)F)cn34)ccc2cc1F [Example 290, (S)-2-(2-(6-((R)-1-((S)-3-aminopyrrolidin-1-yl)-2,2,2-trifluoroethyl)-[1,2,4]triazolo[4,3-a]pyridin-3-yl)-6-fluoroquinolin-7-yloxy)ethyl 2-amino-3-methylbutanoate]",29.7 nM,> 100 nM,> 1000 nM

# Now those with a lower IC50 [1], led by results:
IC50 [1],IC50 [2],IC50 [3],Structure (SMILES)
0.24 nM,0.3 nM,27 nM,"CC1(NC(=O)c2ccc3ccc(-c4nnc5ccc([C@@H](N6CC[C@H](N)C6)C(F)(F)F)cn45)nc3c2)CC1 [Example 53, 2-(6-((R)-1-((S)-3-aminopyrrolidin-1-yl)-2,2,2-trifluoroethyl)-[1,2,4]triazolo[4,3-a]pyridin-3-yl)-N-(1-methylcyclopropyl)quinoline-7-carboxamide dihydrochloride]"
0.24 nM,10 nM,> 100 nM,"O[C@@H]1CN([C@H](c2ccc3nnc(-c4ccc5cccc(C6CC6)c5n4)n3c2)C(F)(F)F)C[C@H]1O [Example 78, (3R,4R)-1-((R)-1-(3-(8-cyclopropylquinolin-2-yl)-[1,2,4]triazolo[4,3-a]pyridin-6-yl)-2,2,2-trifluoroethyl)pyrrolidine-3,4-diol]"
0.19 nM,2.9 nM,> 100 nM,"CC(C)Oc1cccc2ccc(-c3nnc4ccc([C@@H](N5C[C@@H](O)[C@H](O)C5)C(F)(F)F)cn34)nc12 [Example 72, (3R,4R)-1-((R)-2,2,2-trifluoro-1-(3-(8-isopropoxyquinolin-2-yl)-[1,2,4]triazolo[4,3-a]pyridin-6-yl)ethyl)pyrrolidine-3,4-diol]"
0.19 nM,4 nM,77 nM,"N[C@H]1CCN([C@H](c2ccc3nnc(-c4ccc5ccc(F)c(C6CC6)c5n4)n3c2)C(F)(F)F)C1 [Example 60, (S)-1-((R)-1-(3-(8-cyclopropyl-7-fluoroquinolin-2-yl)-[1,2,4]triazolo[4,3-a]pyridin-6-yl)-2,2,2-trifluoroethyl)pyrrolidin-3-amine dihydrochloride]"
0.17 nM,0.5 nM,80 nM,"CC1(COc2cccc3ccc(-c4nnc5ccc([C@@H](N6CC[C@H](N)C6)C(F)(F)F)cn45)nc23)COC1 [Example 192, (S)-1-((R)-2,2,2-trifluoro-1-(3-(8-(3-methyloxetan-3-yl)methoxy)quinolin-2-yl)-[1,2,4]triazolo[4,3-a]pyridin-6-yl)ethyl)pyrrolidin-3-amine diformate]"
0.14 nM,0.2 nM,145 nM,"CO[C@@H](C)COc1cc2nc(-c3nnc4ccc([C@@H](N5CC[C@H](N)C5)C(F)(F)F)cn34)ccc2cc1F [Example 323, (S)-1-((R)-2,2,2-trifluoro-1-(3-(6-fluoro-7-((S)-2-methoxypropoxy)quinolin-2-yl)-[1,2,4]triazolo[4,3-a]pyridin-6-yl)ethyl)pyrrolidin-3-amine di-hydrochloride]"
0.11 nM,0.3 nM,112 nM,"N[C@H]1CCN([C@H](c2ccc3nnc(-c4ccc5ccc(O[C@H]6CCC[C@@H]6O)cc5n4)n3c2)C(F)(F)F)C1 (single isomer, unassigned; diastereomer 1) [Example 319, di-hydrochloride]"
0.11 nM,0.8 nM,72 nM,"COCC(C)Oc1cccc2ccc(-c3nnc4ccc([C@@H](N5CC[C@H](N)C5)C(F)(F)F)cn34)nc12 (stereo partly drawn) [Example 118, (3S)-1-((1R)-2,2,2-trifluoro-1-(3-(8-(1-methoxypropan-2-yloxy)quinolin-2-yl)-[1,2,4]triazolo[4,3-a]pyridin-6-yl)ethyl)pyrrolidin-3-amine hydrochloride]"
0.09 nM,0.3 nM,59 nM,"Cn1cc(-c2ccc3ccc(-c4nnc5ccc([C@@H](N6CC[C@H](N)C6)C(F)(F)F)cn45)nc3c2)cn1 (single isomer, unassigned) [Example 15, tri-hydrochloride]"
